“And” between values parts separate entries of the source, which are not always exact repeats. Identical values can stand only once. Counter-ions that a name gives are not always drawn. Like-named read-outs stand apart in the source and are kept apart here.
What was measured:
[1] = IIIPA group: PA 100 mg/kg b.w. + vehiculum, n = 8, mean ± SD, cited from earlier work
[2] = Plasma pharmacokinetics of PA, GPA and SPA in rats after single oral dose (HPLC-UV, noncompartmental analysis); format: in vivo, rats (Rattus norvegicus, outbred Wistar stock, males)
Procedure: (§1) Rats (Rattus norvegicus, outbred Wistar stock, males, 14 weeks old) were obtained from Anima Sp. z o.o. SK & ViVARI s.c. They were acclimated for one week in a temperature- and humidity-controlled environment with a 12 h light/dark cycle and had ad libitum access to food and water.
The drugs and vehicle were administered directly into the animals’ stomachs using a gastric probe. Animals received drugs in a sequential manner.
(§2) Blood samples were stored at −80 °C until analysis.
(§3) This approach reduced the number of animals involved in the experiment, adhering to the principles of the 3R concept. […] No other experimental conditions were altered.
The column temperature was maintained at 25 °C, the analytical wavelength (λmax) was set at 254 nm, and the injection volume was 50 μL. Theophylline was used as the IS.
The total time of analysis for each run was 10 min. Separation was achieved by isocratic elution of the mobile phase, comprising acetonitrile (93:7, v/v) and sodium sulfate 0.05 M pH 2.2 (adjusted with 85% orthophosphoric acid) at a flow rate of 1.0 mL/min through a BDS Hypersil® C18 column (150 mm × 4.6 mm, 5.0 μm particle size) (Thermo Electron Corporation®, Waltham, MA, USA).
(§4) Plasma data were subjected to noncompartmental pharmacokinetic analysis (NCA) using the PKanalix 2024R1 software (Lixoft, France). The maximum plasma concentration (Cmax) and time to reach Cmax (Tmax) were obtained directly from the concentration–time curves. The elimination rate constant (kel) was calculated by linear regression of the final linear part of plasma concentration against time. The elimination half-life (t0.5) was calculated from the formula t0.5 = 0.693/kel. The area under the concentration–time curve (AUC) was calculated using the linear trapezoidal rule. All data were presented as mean ± SD.

[3] = mean ± SD, cited from earlier work
[4] = Plasma pharmacokinetics of REG, M-2 and M-5 in rats after single oral dose (UPLC-MS/MS, noncompartmental analysis); format: in vivo, rats (Rattus norvegicus, outbred Wistar stock, males); details: for AUC0–∞ increased by / Cmax increased by: after the administration of PA (IREG+PA vs. IIREG); for AUC0–t / AUC0–∞ / Cmax: metabolite of REG
Procedure: as §1
The rats were divided into three groups: one group received REG and PA (IREG+PA), another group received REG (IIREG), and the last group received PA (IIIPA). […] [15] to the IREG+PA and IIIPA groups. The drugs and vehicle were administered directly into the animals’ stomachs using a gastric probe. Animals received drugs in a sequential manner.
as §2, §3
A Cortecs UPLC C18 column (2.1 × 50 mm, 1.6 μm) was equipped with an Acquity UPLC BEH C18 VanGuard pre-column (2.1 × 5 mm, 3/Pk, Waters Corporation). The injection volume was 5 μL. The temperature of the autosampler was 4 °C, and the temperature of the column was 40 °C. Mobile phase A comprised 0.1% aqueous FA solution (v/v) and phase B of ACN:MeOH and 0.1% FA aqueous solution at 1:3 (v/v) ratio. The total run time was 5 min.
The gradient was as follows: 0–0.5 min, with 10% B; 0.5–3 min, 95% B; 3–4 min, 95% B; 4–4.1 min, 10% B; and 4.1–5 min, 10% B. The flow rate was 0.4 mL/min. Positive electrospray ionization (ESI) multiple reaction monitoring (MRM) experiments were conducted for sample analysis. […] The Xevo TQ-S micro mass spectrometer settings were used: source temperature 150 °C, desolvation temperature 600 °C, nitrogen gas flow 900 L/h, and capillary voltage 3.6 kV.
as §4

[5] = patients taking lorlatinib compared to controls; cited from earlier work
[6] = after administration in tablet form; cited from earlier work
[7] = test system: plasma proteins; details: cited from earlier work
[8] = IREG+PA group: REG 20 mg/kg b.w. + PA 100 mg/kg b.w., n = 8, mean ± SD
[9] = IREG+PA group: REG 20 mg/kg b.w. + PA 100 mg/kg b.w., single p.o. dose, n = 8, mean ± SD
[10] = PA co-administered with REG vs. PA alone
[11] = metabolite of REG, IIREG group: vehiculum + REG 20 mg/kg b.w., single oral dose, n = 8
[12] = IREG+PA group: REG 20 mg/kg b.w. + PA 100 mg/kg b.w., single oral dose, n = 8, mean ± SD
[13] = regorafenib and paracetamol vs. control group
[14] = IIREG group: vehiculum + REG 20 mg/kg b.w., single oral dose, n = 8

SMILES: CC(=O)Nc1ccc(O[C@@H]2O[C@H](C(=O)O)[C@@H](O)[C@H](O)[C@H]2O)cc1 [GPA, paracetamol glucuronide]
- Ratio GPA/PA AUC0–t [1]: 1.75 ± 0.47 (27.1)
- Ratio GPA/PA AUC0–∞ [1]: 1.78 ± 0.54 (30.6)
- Ratio GPA/PA Cmax [1]: 1.67 ± 0.41 (24.8)
- AUC0–t ([1]; single p.o. dose): 136.24 ± 23.58 (17.3) µg × h/mL
- AUC0–∞ ([1]; single p.o. dose): 154.09 ± 35.58 (23.09) µg × h/mL
- Cmax ([1]; single p.o. dose): 38.38 ± 3.75 (9.8) µg/mL
- Ratio GPA/PA AUC0–t [2, 8]: 1.50 ± 0.30 (19.7)
- Ratio GPA/PA AUC0–∞ [2, 8]: 1.53 ± 0.34 (21.9)
- Ratio GPA/PA Cmax [2, 8]: 1.02 ± 0.19 (18.9)
- AUC0–t [2, 9]: 97.9 ± 16.13 (16.5) µg × h/mL
- AUC0–∞ [2, 9]: 102.00 ± 18.50 (18.1) µg × h/mL
- Cmax [2, 9]: 27.11 ± 3.05 (11.25) µg/mL
- GPA/PA ratio for Cmax decreased by ([2]; IREG+PA vs. IIIPA): 63.73%
- Gmean ratio (90% CI) of AUC0–t ([2]; IREG+PA vs. IIIPA): 0.72 (0.62; 0.84)
- Gmean ratio (90% CI) of AUC0–∞ ([2]; IREG+PA vs. IIIPA): 0.67 (0.55; 0.80)
- Gmean ratio (90% CI) of Cmax ([2]; IREG+PA vs. IIIPA): 0.71 (0.64; 0.77)
- Gmean ratio (90% CI) of ratio GPA/PA AUC0–t ([2]; IREG+PA vs. IIIPA): 0.87 (0.70; 1.09)
- Gmean ratio (90% CI) of ratio GPA/PA AUC0–∞ ([2]; IREG+PA vs. IIIPA): 0.88 (0.68; 1.13)
- Gmean ratio (90% CI) of ratio GPA/PA Cmax ([2]; IREG+PA vs. IIIPA): 0.62 (0.50; 0.77)
- AUC0–t decreased by [2, 10]: 39.16%
- AUC0–∞ decreased by [2, 10]: 51.1% and 51.07%

SMILES: CNC(=O)c1cc(Oc2ccc(NC(=O)Nc3ccc(Cl)c(C(F)(F)F)c3)c(F)c2)cc[n+]1[O-] [M-2, regorafenib-N-oxide]
- AUC0–t [3, 11]: 9615.36 ± 2275.41 (23.7) ng × h/mL
- AUC0–∞ [3, 11]: 11,469.93 ± 2133.05 (18.6) ng × h/mL
- AUC0–∞ increased by [4]: 170%
- Cmax increased by [4]: 220%
- AUC0–t [4, 12]: 31,036.39 ± 16,132.08 (52.0) ng × h/mL
- AUC0–∞ [4, 12]: 31,434.01 ± 16,129.53 (51.3) ng × h/mL
- Cmax [4, 12]: 1087.58 ± 471.76 (43.4) ng/mL

SMILES: NC(=O)c1cc(Oc2ccc(NC(=O)Nc3ccc(Cl)c(C(F)(F)F)c3)c(F)c2)cc[n+]1[O-] [M-5, N-desmethyl-regorafenib-N-oxide]
- AUC0–t [3, 11]: 803.19 ± 177.02 (22.0) ng × h/mL
- AUC0–∞ [3, 11]: 847.88 ± 178.97 (21.1) ng × h/mL
- AUC0–∞ increased by [4]: 1730%
- Cmax increased by [4]: 2130%
- AUC0–t [4, 12]: 15,054.83 ± 7479.43 (49.7) ng × h/mL
- AUC0–∞ [4, 12]: 15,506.44 ± 8001.74 (51.6) ng × h/mL
- Cmax [4, 12]: 585.96 ± 193.12 (33.0) ng/mL

SMILES: CC(=O)Nc1ccc(O)cc1 [PA, paracetamol, reference compound]
- decrease in AUC0–∞ [5]: 43%
- decrease in Cmax [5]: 15%
- Vd/F ([1]; single p.o. dose): 1.98 ± 0.63 mL/g
- t0.5 ([1]; single p.o. dose): 2.26 ± 0.70 (31.0) h
- tmax ([1]; single p.o. dose): 0.81 ± 0.58 (71.2) h
- Cmax [2, 9]: 27.08 ± 3.88 (14.3) µg/mL
- t0.5 [2, 9]: 1.14 ± 0.45 (39.7) h
- AUC0–t decreased by [2, 10]: 20.72%
- AUC0–t decreased by ([2]; PA co-administered with REG vs. PA alone, listed as paracetamol): 17.16%
- decrease in Vd/F [2, 13]: 54.04%
- decrease in t0.5 [2, 13]: 49.56%

SMILES: CNC(=O)c1cc(Oc2ccc(NC(=O)Nc3ccc(Cl)c(C(F)(F)F)c3)c(F)c2)ccn1 [REG, regorafenib]
- average bioavailability [6]: 69%
- AUC0–∞ [3, 14]: 36.85 ± 5.83 (15.8) µg × h/mL
- Cmax [3, 14]: 1.87 ± 0.31 (16.5) µg/mL
- Vd/F [3, 14]: 2.05 ± 0.61 (29.7) L
- kel [3, 14]: 0.11 ± 0.03 (22.8) 1/h
- Sum of the Cmax values for REG, M-2, and M-5 ([3]; IIREG group): 2078.95 ± 691.36 ng/mL
- t0.5 [4, 12]: 10.67 ± 2.48 (23.28) h
- AUC0–∞ increased by [4]: 1140%
- Cmax increased by [4]: 890%
- bind to plasma proteins [7]: 99.5%

SMILES: CC(=O)Nc1ccc(OS(=O)(=O)O)cc1 [SPA, paracetamol sulfate]
- Ratio SPA/PA AUC0–t [1]: 0.91 ± 0.43 (47.3)
- Ratio SPA/PA AUC0–∞ [1]: 0.94 ± 0.40 (42.4)
- Ratio SPA/PA Cmax [1]: 0.88 ± 0.46 (52.7)
- AUC0–t ([1]; single p.o. dose): 71.92 ± 31.03 (43.2) µg × h/mL
- AUC0–∞ ([1]; single p.o. dose): 82.42 ± 32.71 (39.7) µg × h/mL
- Cmax ([1]; single p.o. dose): 19.41 ± 7.05 (36.4) µg/mL
- Ratio SPA/PA AUC0–t [2, 8]: 2.18 ± 0.50 (22.9)
- Ratio SPA/PA AUC0–∞ [2, 8]: 2.40 ± 0.68 (28.4)
- Ratio SPA/PA Cmax [2, 8]: 1.14 ± 0.12 (10.1)
- AUC0–t [2, 9]: 140.89 ± 17.87 (12.7) µg × h/mL
- AUC0–∞ [2, 9]: 157.71 ± 24.35 (15.4) µg × h/mL
- Cmax [2, 9]: 30.61 ± 3.94 (12.9) µg/mL
- Gmean ratio (90% CI) of AUC0–t ([2]; IREG+PA vs. IIIPA): 2.13 (1.58; 2.86)
- Gmean ratio (90% CI) of AUC0–∞ ([2]; IREG+PA vs. IIIPA): 2.04 (1.54; 2.71)
- Gmean ratio (90% CI) of Cmax ([2]; IREG+PA vs. IIIPA): 1.67 (1.29; 2.15)
- Gmean ratio (90% CI) of ratio SPA/PA AUC0–t ([2]; IREG+PA vs. IIIPA): 2.58 (1.84; 3.60)
- Gmean ratio (90% CI) of ratio SPA/PA AUC0–∞ ([2]; IREG+PA vs. IIIPA): 2.69 (1.94; 3.72)
- Gmean ratio (90% CI) of ratio SPA/PA Cmax ([2]; IREG+PA vs. IIIPA): 1.47 (1.04; 2.09)
- SPA/PA ratio for AUC0–t increased by ([2]; IREG+PA vs. IIIPA): 139.52%
- SPA/PA ratio for AUC0–∞ increased by ([2]; IREG+PA vs. IIIPA): 155.32%
- AUC0–t increased by [2, 10]: 95.89%
- AUC0–∞ increased by [2, 10]: 91.35%
- Cmax increased by [2, 10]: 57.70%

Reference: PMC11597746 (Pharmaceutics, 2024)
